# Measured values as given in publication PMC9460261, “Need for a Standardized Translational Drug Development Platform: Lessons Learned from the Repurposing of Drugs for COVID-19” (Microorganisms, 2022).
# Where a name gives a salt, the structure may show the parent alone. Read-outs that look alike come from different tables or passages of the source.
# Experiments:
# [1] = Population PK model from satellite PK studies in hamster; conditions: for CL/F, elimination clearance, population estimate (%RSE) / KA, absorption rate constant, population estimate (%RSE) / Q/F (Q1/F), inter-compartment clearance, population estimate (%RSE) / VC/F, central volume of distribution, population estimate (%RSE) / VP/F, peripheral volume of distribution, population estimate (%RSE): hamster of the study's median weight (80-131 g)
# SARS-CoV-2 in Vero cells [2] = experiment: microbe, parasite or virus in culture; conditions: Severe acute respiratory syndrome coronavirus 2, Vero
# SARS-CoV-2 [3] = conditions: cited from earlier work
# [4] = test system: SARS-CoV-2 in Calu-3 cells; experiment: microbe, parasite or virus in culture
# SARS-CoV-2 in Vero cells [5] = test system: SARS-CoV-2 in Vero cells
# SARS-CoV-2 [6] = format: in vivo, Syrian hamster
# [7] = Binding to antiviral assay medium by Rapid Equilibrium Dialysis; conditions: for fraction unbound: bovine
# [8] = test system: SARS-CoV-2 in Calu-3 cells
# [9] = Plasma protein binding, hamster; conditions: for fraction unbound: hamster, plasma
# [10] = Plasma protein binding, human; conditions: for fraction unbound: human, plasma
# [11] = cited from earlier work
# [12] = Population PK model in human (digitized literature data); conditions: human; modelled from digitized data; ref 68 (ambroxol), 71-73 (cepharanthine), 78 (fluvoxamine), 80 (molnupiravir)
# in vitro = conditions: African green monkey, Selectivity Index (Vero cells)
# [13] = read-out: VERO cells Average IC50, With Pgp pump inhibitor, 2 μM CP-100356, * one replicate only
# [14] = read-out: VERO cells Average IC50, Without Pgp pump inhibitor, * one replicate only
# [15] = host cell Calu-3, read-out: SARS-CoV-2 EC50
# [16] = Severe acute respiratory syndrome coronavirus 2, Calu-3, read-out: Calu-3 cells Average IC50
# [17] = doses, frequency, duration as in Table 1
# [18] = equilibrium dialysis, DNDi in-house
# [19] = antiviral assay medium (DMEM with 2% v/v FCS)
# [20] = host cell Vero, ref 25, read-out: SARS-CoV-2 EC50
Compound,"CL/F, elimination clearance, population estimate (%RSE) [1]","KA, absorption rate constant, population estimate (%RSE) [1]","Q/F (Q1/F), inter-compartment clearance, population estimate (%RSE) [1]","VC/F, central volume of distribution, population estimate (%RSE) [1]","VP/F, peripheral volume of distribution, population estimate (%RSE) [1]",IC50 (SARS-CoV-2 in Vero cells [2]; [13]),IC50 (SARS-CoV-2 in Vero cells [2]; [14]),"IC50 [4, 16]",Activity In Vitro; Potency EC50 or IC50 < 10 µM; Vero Cells (SARS-CoV-2 in Vero cells [5]),Activity in SARS-CoV-2 Hamster Model (SARS-CoV-2 [6]; [17]),Activity In Vitro; Potency EC50 or IC50 < 10 µM; Calu-3 Cells [8],fraction unbound [9],fraction unbound [10],"fraction unbound [7, 19]",selectivity ratio (in vitro; Without Pgp pump inhibitor),other results
"CC(C)OC(=O)[C@H](C)N[P@](=O)(OC[C@H]1O[C@@H](n2ccc(=O)[nH]c2=O)[C@](C)(F)[C@@H]1O)Oc1ccccc1 [Sofosbuvir, sofosbuvir]",122000 (14.4) mL/h,0.622 (15.9) h-1,139000 (17.2) mL/h,46600 (29.9) mL,1490000 (27.9) mL,> 50 µM,> 50 µM,> 50 µM,No (Potency EC50 or IC50 < 10 µM),No,No (Potency EC50 or IC50 < 10 µM),,,,,"EC50 (SARS-CoV-2 [3]; [15]): 7.3 µM; EC50 (SARS-CoV-2 [3]; host cell HuH-7, read-out: SARS-CoV-2 EC50): 5.1 µM; EC50 (SARS-CoV-2 [3]; host cell Vero, ref 26, read-out: SARS-CoV-2 EC50): > 10 µM; Activity in SARS-CoV-2 Hamster Model (SARS-CoV-2 [6]; doses, frequency, duration as in Table 1, listed as sofosbuvir): no activity; fraction unbound [7]: 0.716"
C[C@@]1(F)[C@H](O)[C@@H](CO)O[C@H]1n1cnc2c(=O)[nH]c(N)nc21 [AT-273],5.77 (33.1) mL/h,,6730 (12.2) mL/h,49200 (13.2) mL,84800 (27.3) mL,,,,,,,,,,,"Fraction unbound in plasma, hamster [9, 18]: 95.5%; KTR, population estimate (%RSE) ([1]; hamster 119 g): 12.3 (50.5) h-1; Fraction unbound in plasma, human [10, 18]: 57.8%; Fraction unbound in assay medium ([7]; 2% serum DMEM media, DNDi in-house data): 99.1%"
CCC(CC)COC(=O)[C@H](C)N[P@](=O)(OC[C@H]1O[C@@](C#N)(c2ccc3c(N)ncnn23)[C@H](O)[C@@H]1O)Oc1ccccc1 [remdesivir],,,,,,,,,,,,,,,,"Plasma stability, half-life ([11]; genetically modified mouse (Cesc-/- knockout)): around 25 min; Plasma stability, half-life ([11]; mice): < 5 min; Effect on lung infectious titers (SARS-CoV-2 [6]; hamster, in vivo): no significant effect; Effect on lung viral RNA yields (SARS-CoV-2 [6]; hamster, in vivo): little significant effect"
"Nc1c(Br)cc(Br)cc1CN[C@H]1CC[C@H](O)CC1 [Ambroxol, ambroxol]",4860 (11.3%) mL/h,4.76 (15.1%) h-1,1180 (22.5%) mL/h,12000 (10.9%) mL,16100 (31.6%) mL,> 50 µM,> 50 µM,> 50 µM,No (Potency EC50 or IC50 < 10 µM),No,No (Potency EC50 or IC50 < 10 µM),0.125,0.238,0.954,,"Dose effect on F (power) ([1]; covariate, hamster model): 0.689 (11.1%); EC50 (SARS-CoV-2 [3]; host cell Vero E6, ref 47, read-out: SARS-CoV-2 EC50): > 30 µM; CL/F, population estimate (%RSE) [12]: 41.4 (3.0%) L/h"
"COCCCC/C(=N\OCCN)c1ccc(C(F)(F)F)cc1 [Fluvoxamine maleate, fluvoxamine maleate]",9500 (10.8) mL/h,,,16500 (12.8) mL,,32.6 µM,26 µM,> 50 µM,No (key: Yes: Potency EC50 or IC50 < 10 µM; No: Potency EC50 or IC50 < 10 µM),No,No (key: Yes: Potency EC50 or IC50 < 10 µM; No: Potency EC50 or IC50 < 10 µM),0.281,0.254,0.771,,"Dose effect on F (power) ([1]; covariate, hamster model): 1.21 (7.4); CL/F, population estimate (%RSE) [12]: 0.148 (3.0) L/h"
"CCN(CC)Cc1cc(Nc2ccnc3cc(Cl)ccc23)ccc1O [Amodiaquine, amodiaquine]",4390 (7.44%) mL/h,0.0784 (6.52%) h-1,,158 (15.3%) mL,,2.6 µM,8.8 µM,> 50 µM,Yes (Potency EC50 or IC50 < 10 µM),No (parent),No (Potency EC50 or IC50 < 10 µM),0.096,0.067,0.878,> 5.7,"selectivity ratio (in vitro; With Pgp pump inhibitor): > 19; Route effect (SC) on CL/F ([1]; covariate, hamster model): -85.3 (1.81%); Route effect (SC) on KA ([1]; covariate, hamster model): -20.4 (19.8%); IC50 (SARS-CoV-2 in Vero cells [2]; read-out: EC50 or IC50, Vero Cells): ~10 µM; EC50 (SARS-CoV-2 [3]; [15]): > 50 µM; EC50 (SARS-CoV-2 [3]; host cell Huh7.5, read-out: SARS-CoV-2 EC50): 0.6 µM; EC50 (SARS-CoV-2 [3]; host cell Vero CCL81, read-out: SARS-CoV-2 EC50): 1.6 µM; EC50 (SARS-CoV-2 [3]; host cell Vero E6, ref 29, read-out: SARS-CoV-2 EC50): 10 µM; EC50 (SARS-CoV-2 [3]; host cell Vero E6, ref 30, read-out: SARS-CoV-2 EC50): 4.9 µM; EC50 (SARS-CoV-2 [3]; [20]): 5.2 µM"
"COC(=O)N[C@H](C(=O)N[C@@H](Cc1ccccc1)[C@@H](O)CN(Cc1ccc(-c2ccccn2)cc1)NC(=O)[C@@H](NC(=O)OC)C(C)(C)C)C(C)(C)C [Atazanavir, atazanavir]",,,,,,> 50 µM,45.5 µM,21 µM,,no activity,,0.2,,0.348,> 2.2,"EC50 (SARS-CoV-2 [3]; atazanavir and ATZ/ritonavir combination, read-out: EC50 in infected A549 lung epithelia cells): 0.6 µM; EC50 (SARS-CoV-2 [3]; host cell A549, read-out: SARS-CoV-2 EC50): 0.2 µM; EC50 (SARS-CoV-2 [3]; host cell Vero E6, ref 23, read-out: SARS-CoV-2 EC50): 2 µM; EC50 (SARS-CoV-2 [3]; host cell Vero E6, ref 24, read-out: SARS-CoV-2 EC50): 9.36 µM; EC50 (SARS-CoV-2 [3]; [20]): > 50 µM"
"CNCCC(Oc1ccc(C(F)(F)F)cc1)c1ccccc1 (centres unmarked) [Fluoxetine, fluoxetine]",447 (7.0) mL/h,5.34 (11.7) h-1,,3530 (6.5) mL,,,,,Yes ^T (key: Yes: Potency EC50 or IC50 < 10 µM; No: Potency EC50 or IC50 < 10 µM),,No (key: Yes: Potency EC50 or IC50 < 10 µM; No: Potency EC50 or IC50 < 10 µM),0.051,0.048,0.682,,"Dose effect on FFP (power) ([1]; covariate, hamster model): -0.0175 (13.7); IC50 (SARS-CoV-2 in Vero cells [2]; read-out: VERO cells Average IC50, With Pgp pump inhibitor): 5.6 µM; IC50 (SARS-CoV-2 in Vero cells [2]; read-out: VERO cells Average IC50, Without Pgp pump inhibitor): 7.7 µM; Toxicity observed (^T), Vero Cells (SARS-CoV-2 in Vero cells [5]): Yes ^T; Activity in SARS-CoV-2 Hamster Model (SARS-CoV-2 [6]; hamster, in vivo): No"
"Cc1c(O)cccc1C(=O)N[C@@H](CSc1ccccc1)[C@H](O)CN1C[C@H]2CCCC[C@H]2C[C@H]1C(=O)NC(C)(C)C [Nelfinavir, nelfinavir]",613 (4.2) mL/h,,,547 (15.3) mL,,1.6 µM,5.5 µM,12.8 µM,Yes (Potency EC50 or IC50 < 10 µM),No ^e,Yes (Potency EC50 or IC50 < 10 µM),0.001,0.001,0.243,> 9,"selectivity ratio (in vitro; With Pgp pump inhibitor): > 32; Dose effect on F (linear) ([1]; covariate, hamster model): 0.384 (32); Dose effect on KA (linear) ([1]; covariate, hamster model): -0.801 (3.7); EC50 (SARS-CoV-2 [3]; host cell Vero E6, ref 41, read-out: SARS-CoV-2 EC50): 2.89 µM; EC50 (SARS-CoV-2 [3]; host cell Vero, ref 40, read-out: SARS-CoV-2 EC50): 0.048 µM; EC50 (SARS-CoV-2 [3]; host cell VeroE6/TMPRSS2, read-out: SARS-CoV-2 EC50): 0.77 µM; IC50 ([4]; Severe acute respiratory syndrome coronavirus 2, Calu-3, read-out: EC50 or IC50, Calu-3 Cells (borderline)): 13 µM; Toxicity observed (^T), Vero Cells (SARS-CoV-2 in Vero cells [5]): Yes ^T; Lung inflammation and disease outcome (SARS-CoV-2 [6]; hamster, in vivo): diminution of lung inflammation; Virus load (SARS-CoV-2 [6]; hamster, in vivo): no effect on viral load was detected"
